Reference: patent publication US20070207993A1, “Molybdenum carbonyl complexes for treating rheumatoid arthritis and other inflammatory diseases” (Alfama - Investigacao e Desenvolvimetno De Productos …, priority 2005, published 2007)

What was measured:
Wistar rats = assay: Adjuvant arthritis in rats; format: in vivo, rat
Experimental: Adjuvant arthritis was induced in 11 week old, outbred Wistar rats (376-400 g) by a single intradermal injection into the subplanatar area of the right hind paw of 100 microliter of a 10 mg/ml suspension of mycobacterium butyricum in incomplete Freund's Adjuvant. The disease was induced in 3 groups of rats each consisting of 7 animals. […] Groups 2 and 3 received daily applications of methylene chloride (positive control) (500 mg/kg), or Compound I.1 (80 mg/kg), respectively. Both compounds were administered in olive oil by oral gavage. Treatment was initiated at day 10 after disease induction when signs of arthritis began to appear in the injected footpad as well as in the contralateral footpad. […] All animals were evaluated daily by determination of body weight, foot pad volume (performed by a water displacement method using a plethysmometer, Ugo Basile, Comerio, Italy), ankle circumference (using a flexible measuring tape) and arthritic index that is based on levels of erythema and oedema of the entire paws and digits, number of joints involved, spondilosis, lesions on tail, movement capacity and infections (0=normal, 1=swelling and/or redness of injected paw; 4=severe arthritis of the entire injected paw and digits; +2=2 joints are involved; +3=>2 joints are involved; +1=infection of paws; +1=tail lesions; +1=movement incapacity; +1=spondilosis). […]

Sprague Dawley rats = assay: Toxicity in vivo, 20-day daily dosing; set-up: species or system rat; conditions: 80 mg/kg daily for 20 days, in olive oil
Experimental: Compound I.1 was dissolved in olive oil and administered to Sprague Dawley rats at a daily dose of 80 mg/kg for 20 days. At the end of the treatment the rats were anesthetized, blood was collected and organ samples were fixed in formalin for histological analysis.

[1] = Spontaneous CO release from suspensions (gas chromatography, TCD); format: physicochemical; conditions: dark; for Equivalents of CO released, H2O pH = 2.13: suspension in H2O pH 2.13, 37° C.; for Equivalents of CO released, H2O pH = 8.3: suspension in H2O pH 8.3, 37° C.; for Equivalents of CO released, RPMI: suspension in RPMI with 10% FBS; for Equivalents of CO released, RPMI / CO equivalents (average ± standard deviation) / Equivalents of CO released, Olive oil: 37° C.; for CO equivalents (average ± standard deviation): suspension in RPMI, eight independent assays; for Equivalents of CO released, Olive oil: suspension in olive oil
Experimental: CO detection was carried out by Gas Chromatography using a thermal conductivity detector (TCD) for the quantification of CO and CO2. The experiments were done under an initial atmosphere of reconstituted air, free of CO and CO2. […] […] Samples were withdrawn with gas-tight Hamilton syringes after homogenization of the head-space at given time intervals, preferably 2 hours, 4 hours and 6 hours. […] The volumes of CO released are usually in the range between 0.5-3 mL.
As a possible result of the use of suspensions, the number of CO equivalents released in RPMI varied slightly. As an example of the possible variations, the average of eight independent assays done with suspensions of Compound I.1 is given in Table 2.

[2] = Solubility in water and RPMI; format: physicochemical
[3] = CO release in vivo (CO-hemoglobin in blood by oximeter); conditions: Balb/c mice, intraperitoneal, 100, 25 and 6.25 mg/kg, propylene glycol-water; 0, 30, 120 (330) minutes
Experimental: Nine week old Balb/c mice with a body weight of about 20 g were injected by the intraperitoneal route with Compound I.1 dissolved in a propylene glycol-water mixture. Three doses (100, 25 and 6.25 mg/kg) were used. At various times after the administration of the Compound I.1 blood was collected and CO-hemoglobin levels were determined using an oximeter.
Compound I.1 was administered intraperitonally to mice at a concentration of 100 mg/kg using propylene glycol/water ca.˜2:1 as vehicle. The amount of COHb (carboxyhemoglobin) was monitored with an oximeter in blood samples withdrawn at 0, 30, 120 and 330 minutes after administration. The results are shown in FIG. 9 and show a peaked level of CO after 30 minutes followed by a slow decline.
Compound I.1 was encapsulated in methylated β-cyclodextrin, 2,3,6-tri-O-methyl-β-cyclodextrin, known in the art as TRIMEB, by a standard technique. The encapsulated Compound I.1@TRIMEB (“@” means “encapsulated in”) was administered intraperitonally to mice at a concentration of 30 mg/kg using phosphate buffered saline (PBS) as vehicle. The amount of COHb (carboxyhemoglobin) was monitored with an oximeter in blood samples withdrawn after 30, 60, 90 and 120 minutes after administration.

Balb/c mice = assay: Mortality in mice after injection of a lethal dose of LPS; format: in vivo; conditions: LPS 10 mg/kg i.p., four i.p. injections of 20 mg/kg at -60, -30 min, +4 h, +9 h
Experimental: Seventeen eight week old Balb/c mice received one intraperitoneal injection of LPS at a dose of 10 mg/kg at time zero. One group of eight mice received four intraperitoneal injections of Compound I.1, each at a dose of 20 mg/kg, at 60 and 30 minutes before LPS and at 4 hours and 9 hours after LPS. A second group of 9 mice received four intraperitoneal injections of vehicle (carboxymethylcellulose 0.5%, Tween80 0.5%) at 60 and 30 minutes before LPS and at 4 hrs and 9 hrs after LPS. Survival of the mice was monitored for 168 hours.

O=[C][Mo]([Br])([C]=O)([C]=O)([C]=O)[C]=O [Compound I.1]
paw volume, paw circumference and arthritis index (all measured parameters) versus positive control (Wistar rats; Wistar rats, 80 mg/kg daily oral gavage in olive oil, day 10 to 29, methylene chloride at 500 mg/kg): superior to methylene chloride | effect in control rats with severe arthritis treated from day 20 on (Wistar rats; three rats of the control group, treated for 10 days): signs of improvements | histologic analysis of liver, kidney, heart, and spleen (Sprague Dawley rats): did not reveal any gross alterations | serum creatinine (Sprague Dawley rats): in the normal range | serum glutamic oxalacetic transaminase (sGOT) (Sprague Dawley rats): in the normal range | serum glutamic pyruvic transaminase (sGPT) (Sprague Dawley rats): in the normal range | serum urea (Sprague Dawley rats): in the normal range | signs of liver or kidney toxicity (Sprague Dawley rats): No signs of liver or kidney toxicity | Equivalents of CO released, H2O pH = 2.13 ([1]; 2 hours): 0.98 equivalents of CO | Equivalents of CO released, H2O pH = 2.13 ([1]; 4 hours): 1.00 equivalents of CO | Equivalents of CO released, H2O pH = 2.13 ([1]; 6 hours): 0.93 equivalents of CO | Equivalents of CO released, H2O pH = 8.3 ([1]; 2 hours): 1.24 equivalents of CO | Equivalents of CO released, H2O pH = 8.3 ([1]; 4 hours): 1.03 equivalents of CO | Equivalents of CO released, H2O pH = 8.3 ([1]; 6 hours): 0.98 equivalents of CO | Equivalents of CO released, RPMI ([1]; 2 hours): 1.82 equivalents of CO | Equivalents of CO released, RPMI ([1]; 4 hours): 2.16 equivalents of CO | Equivalents of CO released, RPMI ([1]; 6 hours): 2.27 equivalents of CO | CO equivalents (average ± standard deviation) ([1]; 0.5 hours): 0.64 ± 0.11 CO equivalents | CO equivalents (average ± standard deviation) ([1]; 1 hour): 1.56 ± 0.13 CO equivalents | CO equivalents (average ± standard deviation) ([1]; 2 hours): 1.82 ± 0.01 CO equivalents | CO equivalents (average ± standard deviation) ([1]; 3 hours): 2.42 ± 0.38 CO equivalents | CO equivalents (average ± standard deviation) ([1]; 4 hours): 2.16 ± 0.13 CO equivalents | CO equivalents (average ± standard deviation) ([1]; 5 hours): 2.43 ± 0.39 CO equivalents | CO equivalents (average ± standard deviation) ([1]; 6 hours): 2.27 ± 0.21 CO equivalents | CO equivalents (average ± standard deviation) ([1]; 7 hours): 2.51 ± 0.00 CO equivalents | CO equivalents (average ± standard deviation) ([1]; 24 hours): 2.40 ± 0.00 CO equivalents | Equivalents of CO released, Olive oil ([1]; 2 hours): 0.08 equivalents of CO | Equivalents of CO released, Olive oil ([1]; 4 hours): 0.25 equivalents of CO | Equivalents of CO released, Olive oil ([1]; 6 hours): 0.53 equivalents of CO | solubility in water and RPMI [2]: low solubility | CO-hemoglobin level time course [3]: increase in CO levels during the first time interval, followed by a slow decline | mice alive at 168 hours following LPS injection (Balb/c mice): three of the eight
